One series addresses T1, Sigma-1 receptor (Cavia porcellus, UniProt Q60492).
T1 construct: guinea pig brains were homogenized; from tissue; host or cells: guinea pig brain membranes
Kind of series: Sigma-1 receptor binding assay, [3H](+)-pentazocine displacement in brain membranes. To be noted: 2.5 h, compound at 10^−7 M; [3H](+)-pentazocine 0.5 nM; guinea pig brain membranes; non-specific binding defined by 1 μM haloperidol; read-out: Percent Replacement Sigma-1 receptor [10^−7 M]. As for the experimental part: Some representative compounds of the invention were tested for their activity as sigma (sigma-1) inhibitors. The following protocol was followed:
Brain membrane preparation and binding assays for the σ1-receptor were performed as described (DeHaven-Hudkins et al., 1992, Eur. J. Pharmacol. 227, 371-378.) with some modifications. In brief, guinea pig brains were homogenized in 10 vols. (w/v) of Tris-HCl 50 mM 0.32 M sucrose, pH 7.4, with a Kinematica Polytron PT 3000 at 15000 r.p.m. for 30 s. The homogenate was centrifuged at 1000g for 10 min at 4° C. and the supematants collected and centrifuged again at 48000 g for 15 min at 4° C. The pellet was resuspended in 10 volumes of Tris-HCl buffer (50 mM, pH 7.4), incubated at 37° C. for 30 min, and centrifuged at 48000 g for 20 min at 4° C. Following this, the pellet was resuspended in fresh Tris-HCl buffer (50 mM, pH 7.4) and stored on ice until use.
Each assay tube contained 10 μL of [^3H](+)-pentazocine (final concentration of 0.5 nM), 900 μL of the tissue suspension to a final assay volume of 1 mL and a final tissue concentration of approximately 30 mg tissue net weight/mL. Non-specific binding was defined by addition of a final concentration of 1 μM haloperidol. All tubes were incubated at 37° C. for 150 min before termination of the reaction by rapid filtration over Schleicher & Schuell GF 3362 glass fibre filters [previously soaked in a solution of 0.5% polyethylenimine for at least 1 h]. Filters were then washed with four times with 4 mL of cold Tris-HCl buffer (50 mM, pH 7.4). Following addition of scintillation cocktail, the samples were allowed to equilibrate overnight. The amount of bound radioactivity was determined by liquid scintillation spectrometry using a Wallac Winspectral 1414 liquid scintillation counter. Protein concentrations were determined by the method of Lowry et al. (1951; J. Biol. Chem, 193, 265.).

The text below walks through data of patent publication US20100168093A1, “SUBSTITUTED 3-AMINO-4 -HYDROXY PYRROLIDINES COMPOUNDS, THEIR PREPARATION AND USE AS MEDICAMENTS” (priority 2006, published 2010).

T1 sequence (Q60492 whole entry): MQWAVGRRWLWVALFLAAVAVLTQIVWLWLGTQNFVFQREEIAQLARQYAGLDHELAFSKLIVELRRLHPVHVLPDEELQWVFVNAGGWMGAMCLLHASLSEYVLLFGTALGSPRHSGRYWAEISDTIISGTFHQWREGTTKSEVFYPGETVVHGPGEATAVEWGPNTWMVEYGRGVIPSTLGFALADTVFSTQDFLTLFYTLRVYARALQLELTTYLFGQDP

As usually defined, the melting point is the temperature of the solid-liquid transition. For `O[C@@H]1CN(Cc2ccccc2)C[C@H]1N1CCN(Cc2ccccc2)CC1` [Example 17, (3,4-trans)-1-benzyl-4-(4-benzylpiperazin-1-yl)pyrrolidine-3-ol], the melting point lay within 102 to 103 °C. Also, at Sigma-1 receptor, the inhibition at 0.1 µM was 82.1%.
Taken in the same sequence, the figures for `O[C@@H]1CN(Cc2ccccc2)C[C@H]1N1CCN(c2ccccc2)CC1` [Example 18, (3,4-trans)-1-benzyl-4-(4-phenylpiperazin-1-yl)pyrrolidine-3-ol] were 120 to 123 °C and 90.9%.
In turn, `O=C(c1ccccc1)N1CCN([C@@H]2CN(Cc3ccccc3)C[C@H]2O)CC1` [Example 20, (4-((3,4-trans)-1-benzyl-4-hydroxypyrrolidine-3-yl)piperazin-1-yl)(phenyl)methanone] came in with a melting point of 130 to 134 °C.
